Earlier results in US9539278B2, “Preparation for use of aspartate and vitamin B12 or biotin for regulating ketone bodies” (N.V. Nutricia, priority 2004, dated 2017).

System: blood ketone body concentrations
Conditions: rats, after consumption of high doses of alanine

Which “blood levels of ketone bodies” value does the source give for C[C@H](N)C(=O)O [alanine] here?
Its value is “decreased”.
